Experimental data reported in patent US20250171459A1, “2-METHYL-4',5'-DIHYDROSPIRO[PIPERIDINE-4,7'-THIENO[2,3-C]PYRAN] DERIVATIVES AS INHIBITORS OF APOL1 AND METHODS OF USING SAME” (Vertex Pharmaceuticals Incorporated, priority 2022, published 2025).

biological target: T1, APOL1 (Homo sapiens, UniProt O14791); test: MultiTox-Fluor Multiplex Cytotoxicity Assay in tet-inducible APOL1 T-REx-HEK293 cells (cell rescue, ratio of dead to live cells); type: cell-based; details: tet-inducible transgenic APOL1 T-REx-HEK293 cell lines, 50 ng/mL tet, 24 hours; read-out: IP50 (i.e., IC50 for cell proliferation)
T1 sequence (O14791 1-398 S342G/I384M): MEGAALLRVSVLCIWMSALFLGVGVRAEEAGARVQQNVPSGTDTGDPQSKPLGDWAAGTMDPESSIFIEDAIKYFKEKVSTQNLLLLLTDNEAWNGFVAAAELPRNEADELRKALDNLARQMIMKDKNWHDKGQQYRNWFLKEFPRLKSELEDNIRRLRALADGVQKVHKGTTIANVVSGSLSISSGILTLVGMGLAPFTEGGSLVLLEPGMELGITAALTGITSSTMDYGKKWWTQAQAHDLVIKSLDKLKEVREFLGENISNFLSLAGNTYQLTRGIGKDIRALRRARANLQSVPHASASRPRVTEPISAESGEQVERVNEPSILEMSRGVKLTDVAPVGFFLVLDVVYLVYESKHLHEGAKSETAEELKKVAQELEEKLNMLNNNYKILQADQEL
Outline: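 T-REx-HEK293 cells with tet-inducible APOL1 were treated with compound (10 μM top, 10-point 3-fold dilution, duplicate) plus 50 ng/mL tetracycline for 24 h at 37° C, in DMEM with 2% tet-free FBS. MultiTox-Fluor protease signals gave a dead/live ratio, normalized to no tet (100% viability) and tet alone (0%).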

Row | SMILES | IC50
1 | C[C@H]1C[C@@]2(CCN1Cc1cnn(CC(O)COCC(F)(F)F)c1)OCCc1c2sc(C(F)(F)F)c1CO (stereo partly shown) [Compound 893] | < 100 nM
2 | Cc1cc2c(s1)CCO[C@@]21CCN(C2COCC2O)[C@@H](C)C1 (single isomer, unassigned) [Compound 499] | < 100 nM
3 | CCc1cc2c(s1)CCOC21CCN(Cc2ccc(NS(C)(=O)=O)cc2)CC1 [Compound 1129] | 100 to 500 nM
4 | C[C@H]1C[C@@]2(CCN1Cc1cnn(CC3(O)CCOC3=O)c1)OCCc1c2sc(C(F)(F)F)c1CO (stereo partly shown) [Compound 951] | 500 to 1000 nM
5 | CCc1cc2c(s1)CCOC21CCN(Cc2cn(C3CC(O)C3(C)C)nn2)CC1 (stereo not shown) [Compound 1094] | 500 to 1000 nM
6 | CC(C)Cc1cc2c(s1)CCO[C@@]21CCN(Cc2cn(CCS(C)(=O)=O)nn2)[C@@H](C)C1 [Compound 514] | 100 to 500 nM
7 | CCc1cc2c(s1)CCO[C@@]21CCN(CC2CN(C(=O)c3cc(CO)n[nH]3)C2)[C@@H](C)C1 [Compound 479] | < 100 nM
8 | CCCCC(O)C(=O)N[C@H]1C[C@@H](CN2CC[C@]3(C[C@@H]2C)OCCc2sc(CC)cc23)C1 (stereo partly shown) [Compound 306] | < 100 nM
9 | CCc1cc2c(s1)CCO[C@@]21CCN(Cc2cn(CCNC(=O)c3cnc(C)cn3)nn2)[C@@H](C)C1 [Compound 50] | < 100 nM
10 | CCc1cc2c(s1)CCO[C@@]21CCN(CC2CN(C(=O)C3CC(=O)NC3=O)C2)[C@@H](C)C1 (stereo partly shown) [Compound 472] | < 100 nM
11 | CCc1cc2c(s1)CCOC21CCN(Cc2cnc(N3CCCCC3)s2)CC1 [Compound 1137] | 100 to 500 nM
12 | CCc1cc2c(s1)CCO[C@@]21CCN([C@@H]2CC[C@H](NC(=O)OC(C)(C)C)C2)[C@@H](C)C1 [Compound 295] | 100 to 500 nM
13 | C[C@H]1C[C@@]2(CCN1Cc1ncn3ccccc13)OCCc1c2sc(Cl)c1CO [Compound 740] | 500 to 1000 nM
14 | CCc1cc2c(s1)CCO[C@@]21CCN(C[C@H]2C[C@@H](NS(=O)(=O)c3cccc(C#N)c3)C2)[C@@H](C)C1 [Compound 400] | < 100 nM
15 | CCc1cc2c(s1)CCO[C@@]21CCN(Cc2cn(CC(=O)NC3CC3)nn2)[C@@H](C)C1 [Compound 59] | < 100 nM
16 | CCc1cc2c(s1)CCO[C@@]21CCN(Cc2cn(CC(C)(CO)CO)nn2)[C@@H](C)C1 [Compound 134] | < 100 nM
17 | C[C@H]1C[C@@]2(CCN1C[C@H](O)C(N)=O)OCCc1sc(Cl)cc12 [Compound 508, (2S)-3-[(2′S,4R)-2-chloro-2′-methyl-spiro[6,7-dihydrothieno[3,2-c]pyran-4,4′-piperidine]-1′-yl]-2-hydroxy-propanamide] | 100 to 500 nM
18 | C[C@H]1C[C@@]2(CCN1Cc1cnn(CC3CNC(=O)C3)c1)OCCc1c2sc(C(F)(F)F)c1CO (stereo partly shown) [Compound 921] | < 100 nM
19 | C[C@H]1C[C@@]2(CCN1Cc1cnn(C[C@@H](O)C(=O)N(C)C)c1)OC[C@@H](O)c1cc(C(F)(F)F)sc12 [Compound 994] | < 100 nM
20 | C[C@H]1C[C@@]2(CCN1Cc1ncc(NC(C)(C)CO)cn1)OCCc1cc(CC(F)F)sc12 [Compound 560] | < 100 nM

Row | SMILES | IC50
21 | COCCc1ncc(CN2CC[C@]3(C[C@@H]2C)OCCc2cc(Cl)sc23)cn1 [Compound 640] | 100 to 500 nM
22 | C[C@H]1C[C@@]2(CCN1Cc1cnn(CC(O)C(F)(F)F)c1)OCCc1c2sc(C(F)(F)F)c1CO (stereo partly shown) [Compound 894] | < 100 nM
23 | CCc1cc2c(s1)CCO[C@@]21CCN(Cc2cn(C(C)c3nnc4n3CCC4)nn2)[C@@H](C)C1 (stereo partly shown) [Compound 186] | 100 to 500 nM
24 | CCc1cc2c(s1)CCO[C@@]21CCN([C@H]2C[C@H](NC(=O)OC(C)(C)C)C2)[C@@H](C)C1 [Compound 297] | 500 to 1000 nM
25 | CCc1cc2c(s1)CCO[C@@]21CCN(Cc2cc(C)on2)[C@@H](C)C1 [Compound 287] | < 100 nM
26 | Cc1c[nH]c(=O)c(CN2CC[C@]3(C[C@@H]2C)OCCc2cc(CC(F)F)sc23)c1 [Compound 590] | 500 to 1000 nM
27 | CNC(=O)[C@@H](O)Cn1cc(CN2CC[C@]3(C[C@@H]2C)OC[C@@H](O)c2cc(C(F)(F)F)sc23)cn1 [Compound 997] | < 100 nM
28 | Cc1cncc(CN2CC[C@]3(C[C@@H]2C)OCCc2c3sc(Cl)c2CO)c1 [Compound 723] | 100 to 500 nM
29 | CCc1cc2c(s1)CCO[C@@]21CCN(Cc2cnc(NCC(O)C(F)(F)F)nc2)[C@@H](C)C1 (stereo partly shown) [Compound 231] | 100 to 500 nM
30 | CCc1cc2c(s1)CCO[C@@]21CCN(Cc2cn(C3C[C@H](CO)NC3=O)nn2)[C@@H](C)C1 (stereo partly shown) [Compound 196] | 100 to 500 nM
31 | CCc1cc2c(s1)CCOC21CCN(Cc2cnc(NCCn3cccn3)nc2)CC1 [Compound 1078] | 100 to 500 nM
32 | C[C@H]1C[C@@]2(CCN1Cc1cn(C)nn1)OC[C@H](O)c1cc(Cl)sc12 [Compound 813] | 100 to 500 nM
33 | CCc1cc2c(s1)CCOC21CCN(Cc2cnc(-c3ccccn3)s2)CC1 [Compound 1140] | 500 to 1000 nM
34 | CCc1cc2c(s1)CCO[C@@]21CCN(Cc2cn(Cc3cn(C)nn3)nn2)[C@@H](C)C1 [Compound 179] | < 100 nM
35 | CNC(=O)Cn1cc(CN2CC[C@]3(C[C@@H]2C)OCCc2c3sc(C(F)(F)F)c2CO)cn1 [Compound 901] | < 100 nM
36 | CCc1cc2c(s1)CCO[C@@]21CCN(C[C@H]2C[C@@H](NC(=O)CC(C)(C)O)C2)[C@@H](C)C1 [Compound 346] | < 100 nM
37 | C[C@H]1C[C@@]2(CCN1Cc1ccc(NS(C)(=O)=O)cc1)OC[C@H](O)c1cc(Cl)sc12 [Compound 780] | < 100 nM
38 | C[C@H]1C[C@@]2(CCN1C[C@@H](O)C(N)=O)OCCc1cc(Cl)sc12 [Compound 709, (2R)-3-[(2′S, 7R)-2-chloro-2′-methyl-spiro[4,5-dihydrothieno[2,3-c]pyran-7,4′-piperidine]-1′-yl]-2-hydroxy-propanamide] | 100 to 500 nM
39 | CNC(=O)[C@@H](O)CN1CC[C@]2(C[C@@H]1C)OCCc1cc(C(F)(F)F)sc12 [Compound 869, (2S)-2-hydroxy-N-methyl-3-[(2′S, 7R)-2′-methyl-2-(trifluoromethyl)spiro[4,5-dihydrothieno[2,3-c]pyran-7,4′-piperidine]-1′-yl]propanamide] | 500 to 1000 nM
40 | CCc1cc2c(s1)CCOC21CCN(Cc2cn(CCC(N)=O)nn2)CC1 [Compound 1114] | 500 to 1000 nM

Row | SMILES | IC50
41 | CCc1cc2c(s1)CCOC21CCN(Cc2cn(CC(CC)CO)nn2)C(C)C1 (stereo not shown) [Compound 115] | < 100 nM
42 | CCc1cc2c(s1)CCO[C@@]21CCN(Cc2cn(C3CN(S(=O)(=O)c4cn[nH]c4)C3)nn2)[C@@H](C)C1 [Compound 4] | < 100 nM
43 | CCc1cc2c(s1)CCO[C@@]21CCN(Cc2cn(Cc3cnoc3)nn2)[C@@H](C)C1 [Compound 45] | < 100 nM
44 | CCc1cc2c(s1)CCO[C@@]21CCN(CC2CN(C(=O)CS(C)(=O)=O)C2)[C@@H](C)C1 [Compound 449] | 100 to 500 nM
45 | C[C@H]1C[C@@]2(CCN1Cc1cccc(F)c1)OCCc1c2sc(Cl)c1CO [Compound 756] | 100 to 500 nM
46 | CCc1cc2c(s1)CCO[C@@]21CCN(Cc2cn(Cc3nnc(C)o3)nn2)[C@@H](C)C1 [Compound 176] | 100 to 500 nM
47 | Cn1cc(CN2CCC3(CC2)OCCc2sc(C(F)(F)F)cc23)cn1 [Compound 1167] | 100 to 500 nM
48 | C[C@H]1C[C@@]2(CCN1Cc1cnn(CCS(C)(=O)=O)c1)OCC(N1C(=O)c3ccccc3C1=O)c1cc(Cl)sc12 (stereo partly drawn) [Compound 853, 2-[(2′S, 7R)-2-chloro-2′-methyl-1′-[[1-(2-methylsulfonylethyl)pyrazol-4-yl]methyl]spiro[4,5-dihydrothieno[2,3-c]pyran-7,4′-piperidine]-4-yl]isoindoline-1,3-dione] | 100 to 500 nM
49 | C[C@H]1C[C@@]2(CCN1Cc1cnn(C[C@H](O)C(=O)NC3CC3)c1)OC[C@@H](O)c1cc(C(F)(F)F)sc12 [Compound 999] | < 100 nM
50 | Cc1cncc(N2CCC(CN3CC[C@]4(C[C@@H]3C)OCCc3cc(Cl)sc34)CC2)n1 [Compound 677] | 500 to 1000 nM
51 | Cc1ncc(CN2CC[C@]3(C[C@@H]2C)OC[C@H](O)c2cc(Cl)sc23)cn1 [Compound 793] | 100 to 500 nM
52 | C[C@H]1C[C@@]2(CCN1Cc1cnn(CC(O)CC3(O)CCC3)c1)OC[C@@H](O)c1cc(C(F)(F)F)sc12 (stereo partly shown) [Compound 976] | < 100 nM
53 | CCc1cc2c(s1)CCOC21CCN(Cc2cn(C3CC3)nn2)CC1 [Compound 1112] | 500 to 1000 nM
54 | CCc1cc2c(s1)CCO[C@@]21CCN(C[C@H]2C[C@@H](NC(=O)CCN3CCCC3=O)C2)[C@@H](C)C1 [Compound 366] | 100 to 500 nM
55 | CCc1cc2c(s1)CCO[C@@]21CCN(C[C@H]2C[C@@H](NC(=O)c3ccnc(C)n3)C2)[C@@H](C)C1 [Compound 324] | < 100 nM
56 | CCc1cc2c(s1)CCO[C@@]21CCN(Cc2cn(CC(C)(C)OCCO)nn2)[C@@H](C)C1 [Compound 98] | 100 to 500 nM
57 | CCc1cc2c(s1)CCOC21CCN(Cc2cn(CC(O)c3cccnc3)nn2)CC1 (stereo not shown) [Compound 1103] | 500 to 1000 nM
58 | C[C@H]1C[C@@]2(CCN1C[C@H](O)C(=O)N(C)C)OCCc1cc(Cl)sc12 [Compound 711, (2S)-3-[(2′S, 7R)-2-chloro-2′-methyl-spiro[4,5-dihydrothieno[2,3-c]pyran-7,4′-piperidine]-1′-yl]-2-hydroxy-N,N-dimethyl-propanamide] | 100 to 500 nM
